≈ marks a conversion by molar mass, not a printed value. Each block holds one molecule with its values, some of them ahead of it. Calls of active or inactive are those of the source. The calls are words filed in the database; no cut-off is given here.
Tests used:
in vitro = conditions: PAMPA
Description: Permeability of the compound at 500 uM incubated for 16 hrs by PAMPA

physchem [1] = conditions: buffer, pH 6.8
Description: Equilibrium solubility of compound in buffer at pH 6.8 incubated over night under shaking condition by LC-MS/MS analysis

[2] = target: T1, Phosphatidylinositol 4,5-bisphosphate 3-kinase catalytic subunit beta isoform (Homo sapiens, UniProt P42338); format: cell-based, Fibroblast
Description: Inhibition of human PI3Kbeta expressed in rat fibroblast cells assessed as reduction in AKT phosphorylation at Ser473 residue incubated for 1 hr by AlphaScreen assay

Blood = assay: tissue or blood; format: functional, tissue-based; conditions: Homo sapiens
[3] = target: T2, Phosphatidylinositol 4,5-bisphosphate 3-kinase catalytic subunit delta isoform (Homo sapiens, UniProt O00329)
T2 sequence (O00329 whole entry): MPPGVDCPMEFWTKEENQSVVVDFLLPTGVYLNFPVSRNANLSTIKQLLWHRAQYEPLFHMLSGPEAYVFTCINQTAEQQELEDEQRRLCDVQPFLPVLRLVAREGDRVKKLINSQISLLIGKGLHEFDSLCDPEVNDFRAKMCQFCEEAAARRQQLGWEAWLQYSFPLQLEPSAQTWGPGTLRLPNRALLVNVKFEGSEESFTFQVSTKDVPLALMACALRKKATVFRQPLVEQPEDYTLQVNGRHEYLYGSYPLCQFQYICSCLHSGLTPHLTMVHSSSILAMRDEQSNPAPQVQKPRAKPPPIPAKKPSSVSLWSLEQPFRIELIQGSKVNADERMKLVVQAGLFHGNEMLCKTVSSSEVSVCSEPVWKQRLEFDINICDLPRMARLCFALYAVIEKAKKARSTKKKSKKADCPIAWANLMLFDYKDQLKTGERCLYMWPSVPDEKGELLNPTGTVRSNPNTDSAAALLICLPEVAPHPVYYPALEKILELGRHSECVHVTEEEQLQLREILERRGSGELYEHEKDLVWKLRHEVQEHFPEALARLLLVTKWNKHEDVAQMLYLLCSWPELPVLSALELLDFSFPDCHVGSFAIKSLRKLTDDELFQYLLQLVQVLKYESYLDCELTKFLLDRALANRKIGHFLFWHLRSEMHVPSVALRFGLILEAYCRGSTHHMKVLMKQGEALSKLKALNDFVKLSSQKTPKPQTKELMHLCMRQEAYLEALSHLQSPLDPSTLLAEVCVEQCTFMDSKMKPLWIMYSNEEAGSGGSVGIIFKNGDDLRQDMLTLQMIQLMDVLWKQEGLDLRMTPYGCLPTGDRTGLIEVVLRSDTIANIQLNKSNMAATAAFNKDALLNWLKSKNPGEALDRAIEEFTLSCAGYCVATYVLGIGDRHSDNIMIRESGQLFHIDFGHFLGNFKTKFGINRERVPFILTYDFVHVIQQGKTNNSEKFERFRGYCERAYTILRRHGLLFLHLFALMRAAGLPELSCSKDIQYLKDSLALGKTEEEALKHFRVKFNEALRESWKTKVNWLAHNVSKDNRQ

[4] = target: T3, Phosphatidylinositol 4,5-bisphosphate 3-kinase catalytic subunit alpha isoform (Homo sapiens, UniProt P42336)
[5] = target: T1, Phosphatidylinositol 4,5-bisphosphate 3-kinase catalytic subunit beta isoform
[6] = target: T3, Phosphatidylinositol 4,5-bisphosphate 3-kinase catalytic subunit alpha isoform; format: cell-based, Fibroblast
Description: Inhibition of human PI3Kalpha expressed in rat fibroblast cells assessed as reduction in AKT phosphorylation at Ser473 residue incubated for 1 hr by AlphaScreen assay

[7] = target: T2, Phosphatidylinositol 4,5-bisphosphate 3-kinase catalytic subunit delta isoform; format: cell-based, Fibroblast
Description: Inhibition of human PI3Kdelta expressed in rat fibroblast cells assessed as reduction in AKT phosphorylation at Ser473 residue incubated for 1 hr by AlphaScreen assay

in vivo [8] = conditions: Sprague-Dawley, rat, iv, 1 mg/kg
in vivo [9] = conditions: Sprague-Dawley, rat, po, 10 mg/kg
physchem [10] = conditions: buffer, pH 6.8; remark: listed apart in the source
Description: Solubility of compound at pH 6.8 by shake flask method

in vivo [11] = conditions: Sprague-Dawley, rat, po, 10 mg/kg; remark: listed apart in the source
physchem [12] = conditions: simulated gi fluid, pH 1
Description: Solubility of compound in stimulated gastric fluid at pH 1 using crystalline form of sample by shake flask method

in vivo [13] = conditions: Sprague-Dawley, rat, iv, 1 mg/kg; remark: listed apart in the source
in vivo [14] = conditions: Sprague-Dawley, rat, po, 10 mg/kg; remark: listed apart in the source
physchem [15] = conditions: simulated gi fluid
Description: Solubility of compound in fed state simulated intestinal fluid by shake flask method

in vivo [16] = conditions: Sprague-Dawley, rat, po, 300 mg/kg
in vivo [17] = conditions: Sprague-Dawley, rat, po, 300 mg/kg; remark: listed apart in the source
Rattus norvegicus [18] = organism: Rattus norvegicus; conditions: dose 20.0 mg/kg, time 2.0 hrs
in vivo [19] = conditions: Sprague-Dawley, rat, po, 300 mg/kg; remark: listed apart in the source
in vivo [20] = conditions: Sprague-Dawley, rat, po, 100 mg/kg
[21] = target: 3',5'-cyclic-AMP phosphodiesterase 4D (Homo sapiens, UniProt Q08499)
Description: Binding affinity to PDE4d (unknown origin)

in vivo [22] = conditions: Sprague-Dawley, rat, po, 100 mg/kg; remark: listed apart in the source
in vivo [23] = conditions: Sprague-Dawley, rat, po, 100 mg/kg; remark: listed apart in the source
Rattus norvegicus [24] = organism: Rattus norvegicus; conditions: dose 10-20 mg/kg, time 2.0 hrs

T3 sequence (P42336 whole entry, canonical isoform): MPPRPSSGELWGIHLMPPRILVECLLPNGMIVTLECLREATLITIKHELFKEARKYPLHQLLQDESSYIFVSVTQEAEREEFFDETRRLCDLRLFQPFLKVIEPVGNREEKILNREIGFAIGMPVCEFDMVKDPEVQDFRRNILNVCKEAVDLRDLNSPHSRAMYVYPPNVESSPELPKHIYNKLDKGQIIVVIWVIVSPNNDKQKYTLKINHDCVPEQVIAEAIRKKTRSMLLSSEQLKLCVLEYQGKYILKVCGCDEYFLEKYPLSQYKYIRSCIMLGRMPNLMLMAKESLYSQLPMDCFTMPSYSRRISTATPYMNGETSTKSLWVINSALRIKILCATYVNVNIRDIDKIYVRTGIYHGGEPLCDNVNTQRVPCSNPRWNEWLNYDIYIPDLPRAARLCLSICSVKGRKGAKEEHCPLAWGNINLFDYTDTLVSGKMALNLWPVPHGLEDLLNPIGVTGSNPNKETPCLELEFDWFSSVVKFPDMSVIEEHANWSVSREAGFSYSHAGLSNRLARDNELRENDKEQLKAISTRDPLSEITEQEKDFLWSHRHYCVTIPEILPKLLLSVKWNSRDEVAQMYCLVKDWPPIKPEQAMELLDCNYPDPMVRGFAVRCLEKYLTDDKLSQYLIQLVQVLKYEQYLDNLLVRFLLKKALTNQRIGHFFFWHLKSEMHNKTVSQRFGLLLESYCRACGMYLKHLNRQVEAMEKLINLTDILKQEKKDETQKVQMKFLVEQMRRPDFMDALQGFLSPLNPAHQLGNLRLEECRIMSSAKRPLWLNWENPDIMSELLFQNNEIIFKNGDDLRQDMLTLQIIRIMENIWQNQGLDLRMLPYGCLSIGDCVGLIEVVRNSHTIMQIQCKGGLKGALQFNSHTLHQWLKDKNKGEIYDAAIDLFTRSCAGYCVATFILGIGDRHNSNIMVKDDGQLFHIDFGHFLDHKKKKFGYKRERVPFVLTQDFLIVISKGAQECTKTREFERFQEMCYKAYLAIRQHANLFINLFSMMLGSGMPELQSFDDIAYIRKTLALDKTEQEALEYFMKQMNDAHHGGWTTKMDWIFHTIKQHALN
T1 sequence (P42338 whole entry, canonical isoform): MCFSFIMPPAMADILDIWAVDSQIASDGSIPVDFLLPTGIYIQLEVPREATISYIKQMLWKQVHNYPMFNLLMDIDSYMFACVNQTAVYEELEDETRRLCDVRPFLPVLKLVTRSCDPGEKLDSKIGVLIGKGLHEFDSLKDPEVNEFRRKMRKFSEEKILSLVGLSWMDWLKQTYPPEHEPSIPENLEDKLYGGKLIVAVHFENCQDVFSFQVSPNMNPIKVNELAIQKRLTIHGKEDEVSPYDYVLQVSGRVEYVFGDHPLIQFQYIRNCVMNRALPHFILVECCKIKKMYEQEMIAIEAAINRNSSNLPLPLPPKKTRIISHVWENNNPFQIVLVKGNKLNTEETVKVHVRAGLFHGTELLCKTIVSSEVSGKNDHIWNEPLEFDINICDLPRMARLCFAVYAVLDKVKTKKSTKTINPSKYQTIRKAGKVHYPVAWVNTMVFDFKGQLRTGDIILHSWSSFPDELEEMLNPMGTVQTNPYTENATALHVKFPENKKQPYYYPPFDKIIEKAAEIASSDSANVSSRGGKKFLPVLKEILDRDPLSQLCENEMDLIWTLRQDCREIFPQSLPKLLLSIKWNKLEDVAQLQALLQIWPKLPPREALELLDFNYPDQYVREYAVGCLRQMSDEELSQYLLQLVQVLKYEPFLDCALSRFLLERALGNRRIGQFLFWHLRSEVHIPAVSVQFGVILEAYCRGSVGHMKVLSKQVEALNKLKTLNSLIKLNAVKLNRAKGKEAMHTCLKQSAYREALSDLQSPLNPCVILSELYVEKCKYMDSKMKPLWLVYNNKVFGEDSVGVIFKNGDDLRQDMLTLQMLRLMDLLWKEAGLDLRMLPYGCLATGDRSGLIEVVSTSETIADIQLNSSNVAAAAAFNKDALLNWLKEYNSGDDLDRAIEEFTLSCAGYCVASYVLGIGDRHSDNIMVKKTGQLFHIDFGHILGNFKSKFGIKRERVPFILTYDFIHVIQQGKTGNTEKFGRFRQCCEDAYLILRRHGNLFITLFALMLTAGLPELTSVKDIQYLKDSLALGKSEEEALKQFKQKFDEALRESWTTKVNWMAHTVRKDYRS
Chain of 3',5'-cyclic-AMP phosphodiesterase 4D (Q08499 whole entry): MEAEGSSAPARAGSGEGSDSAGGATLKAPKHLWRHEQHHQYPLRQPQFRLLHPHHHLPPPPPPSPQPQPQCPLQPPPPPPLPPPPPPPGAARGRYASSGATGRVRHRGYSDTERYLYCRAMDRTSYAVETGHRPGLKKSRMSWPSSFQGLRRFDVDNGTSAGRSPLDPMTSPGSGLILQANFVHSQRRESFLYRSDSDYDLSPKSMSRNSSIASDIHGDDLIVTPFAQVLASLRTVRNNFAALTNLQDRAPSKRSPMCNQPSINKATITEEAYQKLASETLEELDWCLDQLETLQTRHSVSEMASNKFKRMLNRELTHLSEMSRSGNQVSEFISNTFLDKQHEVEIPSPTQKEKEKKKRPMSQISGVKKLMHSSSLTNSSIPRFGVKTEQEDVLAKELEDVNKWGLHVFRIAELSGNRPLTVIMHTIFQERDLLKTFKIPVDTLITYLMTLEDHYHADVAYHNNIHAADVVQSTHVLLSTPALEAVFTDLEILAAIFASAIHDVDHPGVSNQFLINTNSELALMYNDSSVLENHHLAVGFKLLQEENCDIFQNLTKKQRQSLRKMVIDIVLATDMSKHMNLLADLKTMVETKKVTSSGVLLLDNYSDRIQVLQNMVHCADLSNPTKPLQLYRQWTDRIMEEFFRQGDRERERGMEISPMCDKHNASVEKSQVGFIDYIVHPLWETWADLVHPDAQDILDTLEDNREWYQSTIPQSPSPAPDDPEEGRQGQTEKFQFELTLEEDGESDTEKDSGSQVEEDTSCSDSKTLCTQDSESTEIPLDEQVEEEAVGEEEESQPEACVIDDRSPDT

Fa at 16 h, 500 µM (in vitro): 81%
SMILES: Cc1ccc(S(=O)(=O)NCC(C)(C)O)cc1-c1cnc(N)c(-c2nn(C)nc2C)n1

Fa at 16 h, 500 µM (in vitro): 68%
solubility thermodynamic (physchem [1]): 30 µg/mL (≈ 72.2 µM)
SMILES: Cc1cnn(-c2cc(-c3cc(S(=O)(=O)NCC(C)(C)O)ccc3C)cnc2N)c1

Fa at 16 h, 500 µM (in vitro): < 27%
SMILES: Cc1ccc(S(=O)(=O)NCC(C)(C)O)cc1-c1cnc(N)c(-n2cncn2)c1

Fa at 16 h, 500 µM (in vitro): 43%
SMILES: Cc1cc(-c2nc(-c3cc(S(=O)(=O)NCC(C)(C)O)ccc3C)cnc2N)on1

IC50 [2]: 2.36 µM
IC50 (Blood): 7.05 µM
IC50 [3]: 0.96 µM
IC50 [4]: 3.03 µM
IC50 [5]: 0.36 µM
IC50 [6]: > 10 µM
IC50 [7]: 4.03 µM
SMILES: CCn1nnc(CCNC(=O)Nc2nc(C)c(-c3ccc(S(C)(=O)=O)c(F)c3)s2)n1

IC50 (Blood): 0.931 µM
Fa at 16 h, 500 µM (in vitro): 52%
solubility thermodynamic (physchem [1]): 290 µg/mL (≈ 696 µM)
SMILES: Cc1ccc(S(=O)(=O)NCC(C)(C)O)cc1-c1cnc(N)c(-c2cnn(C)n2)c1

Fa at 16 h, 500 µM (in vitro): 96%
SMILES: Cc1ncc(-c2nc(-c3cc(S(=O)(=O)NC4CCC(F)(F)CC4)ccc3C)cnc2N)s1

Fa at 16 h, 500 µM (in vitro): 27%
SMILES: Cc1ccc(S(=O)(=O)NCC(C)(C)O)cc1-c1cnc(N)c(-n2cncn2)n1

Fa at 16 h, 500 µM (in vitro): 60%
SMILES: Cc1ccc(S(=O)(=O)NCC(C)(C)O)cc1-c1cnc(N)c(-c2cnn(C)n2)n1

Fa at 16 h, 500 µM (in vitro): 35%
SMILES: Cc1ncc(-c2nc(-c3cc(S(=O)(=O)NCCC(C)(C)O)ccc3C)cnc2N)s1

Fa at 16 h, 500 µM (in vitro): 35%
SMILES: Cc1ncc(-c2nc(-c3cc(S(=O)(=O)NCCO)ccc3C)cnc2N)s1

Fa at 16 h, 500 µM (in vitro): < 35%
SMILES: Cc1ccc(S(=O)(=O)NCC(C)(C)O)cc1-c1cnc(N)c(-c2cnn(C)c2C)c1

half-life (in vivo [8]): 4.6 h
SMILES: Cc1ccc(S(=O)(=O)N[C@H]2CC[C@H](O)CC2)cc1-c1cnc(N)c(C(=O)C2CC2)n1

IC50 (Blood): 1.81 µM
Fa at 16 h, 500 µM (in vitro): 43%
solubility thermodynamic (physchem [1]): 52 µg/mL (≈ 120 µM)
SMILES: Cc1ncc(-c2cc(-c3cc(S(=O)(=O)NCC(C)(C)O)ccc3C)cnc2N)s1

Fa at 16 h, 500 µM (in vitro): 27%
SMILES: Cc1nnc(-c2cc(-c3cc(S(=O)(=O)NCC(C)(C)O)ccc3C)cnc2N)o1

bioavailability (in vivo [9]): 66%
solubility thermodynamic (physchem [10]): 16 µg/mL (≈ 38.3 µM)
AUC(0-t) at 24 h (in vivo [11]): 17.1 µM·h
Fa at 16 h, 500 µM (in vitro): 81%
solubility thermodynamic (physchem [1]): 160 µg/mL (≈ 383 µM)
solubility thermodynamic (physchem [12]): 1020 µg/mL (≈ 2460 µM)
clearance (in vivo [13]): 15 mL/min/kg
Cmax (in vivo [14]): 3.29 µM
solubility thermodynamic (physchem [15]): 92 µg/mL (≈ 220 µM)
SMILES: Cc1noc(-c2cc(-c3cc(S(=O)(=O)NCC(C)(C)O)ccc3C)cnc2N)n1

Fa at 16 h, 500 µM (in vitro): 96%
SMILES: Cc1ccn(-c2nc(-c3cc(S(=O)(=O)NCC(C)(C)O)ccc3C)cnc2N)n1

Fa at 16 h, 500 µM (in vitro): 24%
SMILES: Cc1ccc(S(=O)(=O)NCC(C)(C)O)cc1-c1cnc(N)c(-c2cn(C)nc2C)n1

IC50 (Blood): 0.856 µM
bioavailability (in vivo [9]): 72%
bioavailability (in vivo [16]): 122%
Cmax (in vivo [17]): 25.2 µM
solubility thermodynamic (physchem [10]): 4 µg/mL (≈ 9.6 µM)
AUC(0-t) at 24 h (in vivo [11]): 9.75 µM·h
AUC(0-t) at 24 h (in vivo [19]): 397 µM·h
Cmax (in vivo [20]): 12.2 µM
IC50 [21]: 1.1 µM
Fa at 16 h, 500 µM (in vitro): < 27%
solubility thermodynamic (physchem [1]): 270 µg/mL (≈ 648 µM)
solubility thermodynamic (physchem [12]): 532 µg/mL (≈ 1280 µM)
AUC(0-t) at 24 h (in vivo [22]): 128 µM·h
clearance (in vivo [13]): 30 mL/min/kg
Cmax (in vivo [14]): 1.53 µM
bioavailability (in vivo [23]): 94%
solubility thermodynamic (physchem [15]): 200 µg/mL (≈ 480 µM)
SMILES: Cc1ncc(-c2cc(-c3cc(S(=O)(=O)NCC(C)(C)O)ccc3C)cnc2N)o1
inhibition (Rattus norvegicus [18]): Active
inhibition (Rattus norvegicus [24]): Dose-Dependent Effect

Fa at 16 h, 500 µM (in vitro): < 21%
SMILES: Cc1ncc(-c2nc(-c3cc(S(=O)(=O)N[C@H]4CC[C@H](O)CC4)ccc3C)cnc2N)s1

Fa at 16 h, 500 µM (in vitro): 43%
SMILES: Cc1ncc(-c2nc(-c3cc(S(=O)(=O)NCC(C)(C)O)ccc3C)cnc2N)s1

Fa at 16 h, 500 µM (in vitro): 27%
SMILES: Cc1ncc(-c2nc(-c3cc(S(=O)(=O)NCCCO)ccc3C)cnc2N)s1
